Assay results published in ChEMBL document CHEMBL3885861, “Open TG-GATES”.

Species: Rattus norvegicus
Test: Open TG-GATES - Regimen: Daily Repeat
Format: toxicity, organism-based, Sprague-Dawley
Set-up: regimen Daily Repeat, gender Male, age 6 weeks
Conditions: in vivo, po, route gavage; for APTT / Bas / Eos / Fbg / Hb / Ht / Lym / MCH / MCHC / MCV / Mono / Neu / PT / Plat / RBC / Ret / WBC: tissue Blood; for KIDNEY_L / KIDNEY_R / KIDNEY_TOTAL: tissue Kidney; for LIVER: tissue Liver; for A/G / ALP / ALT / AST / BUN / CRE / Ca / Cl / DBIL / GLC / IP / K / LDH / Na / PL / RALB / TBIL / TC / TG / TP / gamma-GTP: tissue Plasma
[1] = 1200 mg/kg, 72 h, dose level Middle, time 3 day
[2] = 1200 mg/kg, […], dose level Middle, time 7 day
[3] = 1200 mg/kg, […], dose level Middle, time 14 day
[4] = 1200 mg/kg, […], dose level Middle, time 28 day
[5] = 4000 mg/kg, 72 h, dose level High, time 3 day
[6] = 4000 mg/kg, […], dose level High, time 7 day
[7] = 4000 mg/kg, […], dose level High, time 14 day
[8] = 4000 mg/kg, […], dose level High, time 28 day

## CCO [ALCOHOL]
[1]
  TERMINAL_BW: 236.1 g
  APTT: 17.5 s
  Bas: 0%
  Eos: 1.2%
  Fbg: 209 mg/dL
  Hb: 13.9 g/dL
  Ht: 41%
  Lym: 74.6%
  MCH: 21.6 pg
  MCHC: 33.8%
  MCV: 64 fL
  Mono: 5.8%
  Neu: 18%
  PT: 11.3 s
  Plat: 124.3 x10_4/uL
  RBC: 642.4 x10_4/ul
  Ret: 7.7%
  WBC: 106.2 x10_2/uL
  KIDNEY_L: 1.1 g
  KIDNEY_R: 1.1 g
  KIDNEY_TOTAL: 2.1 g
  LIVER: 11.5 g
  A/G: 2.3
  ALP: 854.8 IU/L
  ALT: 38.2 IU/L
  AST: 65 IU/L
  BUN: 20.2 mg/dL
  CRE: 0.6 mg/dL
  Ca: 11.2 mg/dL
  Cl: 104 meq/L
  DBIL: 0.026 mg/dL
  GLC: 208.2 mg/dL
  IP: 9 mg/dL
  K: 4.7 meq/L
  LDH: 113.6 IU/L
  Na: 141 meq/L
  PL: 145.6 mg/dL
  RALB: 4.1 g/dL
  TBIL: 0.3 mg/dL
  TC: 74.2 mg/dL
  TG: 89.2 mg/dL
  TP: 5.8 g/dL
  gamma-GTP: 1.4 IU/L
[2]
  TERMINAL_BW: 268.6 g
  APTT: 18.1 s
  Bas: 0%
  Eos: 0.8%
  Fbg: 227.4 mg/dL
  Hb: 14.3 g/dL
  Ht: 42.2%
  Lym: 81.8%
  MCH: 21.3 pg
  MCHC: 33.8%
  MCV: 62.9 fL
  Mono: 6.2%
  Neu: 11.4%
  PT: 11 s
  Plat: 127.6 x10_4/uL
  RBC: 670.6 x10_4/ul
  Ret: 6.1%
  WBC: 112 x10_2/uL
  KIDNEY_L: 1.1 g
  KIDNEY_R: 1.2 g
  KIDNEY_TOTAL: 2.3 g
  LIVER: 13.2 g
  A/G: 2.3
  ALP: 946.6 IU/L
  ALT: 37.4 IU/L
  AST: 64.8 IU/L
  BUN: 20.8 mg/dL
  CRE: 0.5 mg/dL
  Ca: 10.6 mg/dL
  Cl: 103.8 meq/L
  DBIL: 0 mg/dL
  GLC: 202 mg/dL
  IP: 8.4 mg/dL
  K: 4.8 meq/L
  LDH: 108.4 IU/L
  Na: 141 meq/L
  PL: 154.4 mg/dL
  RALB: 4.1 g/dL
  TBIL: 0.3 mg/dL
  TC: 70.6 mg/dL
  TG: 132.4 mg/dL
  TP: 6 g/dL
  gamma-GTP: 1.4 IU/L
[3]
  TERMINAL_BW: 302.2 g
  APTT: 18.2 s
  Bas: 0%
  Eos: 1.2%
  Fbg: 227 mg/dL
  Hb: 15.4 g/dL
  Ht: 45.5%
  Lym: 80%
  MCH: 20.6 pg
  MCHC: 33.9%
  MCV: 60.8 fL
  Mono: 5.4%
  Neu: 13.6%
  PT: 11.4 s
  Plat: 115.9 x10_4/uL
  RBC: 749 x10_4/ul
  Ret: 4.5%
  WBC: 119.1 x10_2/uL
  KIDNEY_L: 1.2 g
  KIDNEY_R: 1.2 g
  KIDNEY_TOTAL: 2.4 g
  LIVER: 13.7 g
  A/G: 1.8
  ALP: 821.6 IU/L
  ALT: 33 IU/L
  AST: 62.2 IU/L
  BUN: 19.2 mg/dL
  CRE: 0.5 mg/dL
  Ca: 10.8 mg/dL
  Cl: 105 meq/L
  DBIL: 0.018 mg/dL
  GLC: 205.6 mg/dL
  IP: 7.4 mg/dL
  K: 4.5 meq/L
  LDH: 104.4 IU/L
  Na: 141.8 meq/L
  PL: 159.8 mg/dL
  RALB: 3.9 g/dL
  TBIL: 0.3 mg/dL
  TC: 79 mg/dL
  TG: 114.2 mg/dL
  TP: 6.1 g/dL
  gamma-GTP: 1 IU/L
[4]
  TERMINAL_BW: 371.8 g
  APTT: 17.5 s
  Bas: 0%
  Eos: 1.4%
  Fbg: 224 mg/dL
  Hb: 15.4 g/dL
  Ht: 46.3%
  Lym: 73.2%
  MCH: 19.1 pg
  MCHC: 33.3%
  MCV: 57.3 fL
  Mono: 6.6%
  Neu: 18.8%
  PT: 11.1 s
  Plat: 104.5 x10_4/uL
  RBC: 809 x10_4/ul
  Ret: 7%
  WBC: 96.6 x10_2/uL
  KIDNEY_L: 1.3 g
  KIDNEY_R: 1.4 g
  KIDNEY_TOTAL: 2.7 g
  LIVER: 14.7 g
  A/G: 1.5
  ALP: 558.4 IU/L
  ALT: 32.8 IU/L
  AST: 64 IU/L
  BUN: 21.4 mg/dL
  CRE: 0.6 mg/dL
  Ca: 10.2 mg/dL
  Cl: 107.4 meq/L
  DBIL: 0 mg/dL
  GLC: 221.2 mg/dL
  IP: 6.6 mg/dL
  K: 4.4 meq/L
  LDH: 83 IU/L
  Na: 141 meq/L
  PL: 151.4 mg/dL
  RALB: 3.6 g/dL
  TBIL: 0.3 mg/dL
  TC: 70.6 mg/dL
  TG: 181.6 mg/dL
  TP: 6.1 g/dL
  gamma-GTP: 1.4 IU/L
[5]
  TERMINAL_BW: 222.6 g
  APTT: 17.5 s
  Bas: 0%
  Eos: 1.4%
  Fbg: 223.4 mg/dL
  Hb: 14 g/dL
  Ht: 41.5%
  Lym: 78%
  MCH: 20.9 pg
  MCHC: 33.7%
  MCV: 62.1 fL
  Mono: 5.6%
  Neu: 15.8%
  PT: 11.3 s
  Plat: 129.6 x10_4/uL
  RBC: 669.2 x10_4/ul
  Ret: 5.5%
  WBC: 91 x10_2/uL
  KIDNEY_L: 1 g
  KIDNEY_R: 1 g
  KIDNEY_TOTAL: 2 g
  LIVER: 10.5 g
  A/G: 2.3
  ALP: 775 IU/L
  ALT: 32 IU/L
  AST: 61 IU/L
  BUN: 16.8 mg/dL
  CRE: 0.5 mg/dL
  Ca: 10.7 mg/dL
  Cl: 103.6 meq/L
  DBIL: 0.022 mg/dL
  GLC: 206 mg/dL
  IP: 8.2 mg/dL
  K: 4.7 meq/L
  LDH: 95.2 IU/L
  Na: 140 meq/L
  PL: 146.4 mg/dL
  RALB: 4 g/dL
  TBIL: 0.3 mg/dL
  TC: 77.6 mg/dL
  TG: 124.4 mg/dL
  TP: 5.7 g/dL
  gamma-GTP: 1.4 IU/L
[6]
  TERMINAL_BW: 252.2 g
  APTT: 18.2 s
  Bas: 0%
  Eos: 1%
  Fbg: 216.8 mg/dL
  Hb: 14.1 g/dL
  Ht: 41.6%
  Lym: 71%
  MCH: 20.7 pg
  MCHC: 33.8%
  MCV: 61.1 fL
  Mono: 6.4%
  Neu: 21.8%
  PT: 11.5 s
  Plat: 110.2 x10_4/uL
  RBC: 680.2 x10_4/ul
  Ret: 5.4%
  WBC: 93.3 x10_2/uL
  KIDNEY_L: 1.1 g
  KIDNEY_R: 1.1 g
  KIDNEY_TOTAL: 2.1 g
  LIVER: 11.7 g
  A/G: 2.4
  ALP: 842.2 IU/L
  ALT: 32.6 IU/L
  AST: 63 IU/L
  BUN: 17 mg/dL
  CRE: 0.5 mg/dL
  Ca: 10.6 mg/dL
  Cl: 103.8 meq/L
  DBIL: 0 mg/dL
  GLC: 206.8 mg/dL
  IP: 8.1 mg/dL
  K: 4.4 meq/L
  LDH: 92.2 IU/L
  Na: 141.2 meq/L
  PL: 145.6 mg/dL
  RALB: 4.1 g/dL
  TBIL: 0.3 mg/dL
  TC: 68.2 mg/dL
  TG: 99.6 mg/dL
  TP: 5.9 g/dL
  gamma-GTP: 1.4 IU/L
[7]
  TERMINAL_BW: 307.3 g
  APTT: 16.8 s
  Bas: 0%
  Eos: 0.8%
  Fbg: 217.6 mg/dL
  Hb: 15 g/dL
  Ht: 45%
  Lym: 82.8%
  MCH: 20.4 pg
  MCHC: 33.3%
  MCV: 61.2 fL
  Mono: 5%
  Neu: 11.4%
  PT: 11.5 s
  Plat: 112.1 x10_4/uL
  RBC: 737 x10_4/ul
  Ret: 4.1%
  WBC: 125 x10_2/uL
  KIDNEY_L: 1.2 g
  KIDNEY_R: 1.2 g
  KIDNEY_TOTAL: 2.5 g
  LIVER: 13.6 g
  A/G: 1.9
  ALP: 806.4 IU/L
  ALT: 37.8 IU/L
  AST: 71.4 IU/L
  BUN: 18.6 mg/dL
  CRE: 0.6 mg/dL
  Ca: 10.8 mg/dL
  Cl: 104.2 meq/L
  DBIL: 0.05 mg/dL
  GLC: 207.2 mg/dL
  IP: 7.9 mg/dL
  K: 4.5 meq/L
  LDH: 121.4 IU/L
  Na: 141.6 meq/L
  PL: 160.8 mg/dL
  RALB: 3.9 g/dL
  TBIL: 0.3 mg/dL
  TC: 78.8 mg/dL
  TG: 143 mg/dL
  TP: 6 g/dL
  gamma-GTP: 1 IU/L
[8]
  TERMINAL_BW: 369.5 g
  APTT: 16.3 s
  Bas: 0%
  Eos: 1.6%
  Fbg: 210.6 mg/dL
  Hb: 15.5 g/dL
  Ht: 46.4%
  Lym: 70.4%
  MCH: 19.2 pg
  MCHC: 33.5%
  MCV: 57.2 fL
  Mono: 7.6%
  Neu: 20.6%
  PT: 11.4 s
  Plat: 106.5 x10_4/uL
  RBC: 813.2 x10_4/ul
  Ret: 6%
  WBC: 123.4 x10_2/uL
  KIDNEY_L: 1.3 g
  KIDNEY_R: 1.3 g
  KIDNEY_TOTAL: 2.7 g
  LIVER: 15 g
  A/G: 1.8
  ALP: 599.4 IU/L
  ALT: 34.6 IU/L
  AST: 66.6 IU/L
  BUN: 19.6 mg/dL
  CRE: 0.6 mg/dL
  Ca: 10.3 mg/dL
  Cl: 107 meq/L
  DBIL: 0.006 mg/dL
  GLC: 213.6 mg/dL
  IP: 6.2 mg/dL
  K: 4.5 meq/L
  LDH: 89.6 IU/L
  Na: 140.4 meq/L
  PL: 153.6 mg/dL
  RALB: 3.9 g/dL
  TBIL: 0.3 mg/dL
  TC: 73.2 mg/dL
  TG: 173.4 mg/dL
  TP: 6.1 g/dL
  gamma-GTP: 1.4 IU/L
